Assay results taken from US20070276032A1, “Use of 8-Prenylnaringenin for Hormone Replacement Therapy” (priority 2003, published 2007).

Columns and labels:
[1] = test system: ovariectomized rats; assay: Bone mineral density of proximal tibia, estradiol in ovariectomized rats (Example 2); format: in vivo, Sprague-Dawley rats; details: OVX rats; for Total bone density / Trabecular density: proximal tibia, s.c. 5 days a week, 4 weeks
Method: Fifty-six female Sprague-Dawley rats, 12-14 weeks old, were used altogether. Forty-nine animals were randomized into seven groups. Group 8 (seven animals) administered with the third vehicle, benzyl alcohol/sesame oil, was added to the study thirteen days later. Seven groups were ovariectomized (OVX) and one group was sham-operated (SHAM). Animals were treated subcutaneously once a day, five days a week (Monday-Friday) as follows. Groups 1 (the SHAM group) and 2 (the OVX group) were given the vehicle benzylbenzoate/ricinus oil (0.5 ml/kg, B/R). […] Treatments started on the day following surgical operation and continued for 4 weeks. At the end of the study, ex vivo BMD of proximal tibia was measured and serum estradiol was determined. In addition, uterus was weighed. Bone mineral density measurement was carried out by pQCT (XCT-960A, Stratec, Germany). The bone specimens were thawed before measurement. Six 1 mm-thick sections of the proximal tibia (2 mm below the epiphyseal growth plate) were scanned at 0.5 mm intervals using a voxel size of 0.148 mm. […] After bone densitometry, the specimens were wrapped back to saline saturated gauzes and stored at −20° C.

[2] = test system: ovariectomized rats; assay: Relative uterine weight, estradiol in ovariectomized rats (Example 2); format: in vivo, Sprague-Dawley rats; details: OVX rats; for Relative uterine weight: s.c. 5 days a week, 4 weeks
Method: (§1) Fifty-six female Sprague-Dawley rats, 12-14 weeks old, were used altogether. Forty-nine animals were randomized into seven groups. Group 8 (seven animals) administered with the third vehicle, benzyl alcohol/sesame oil, was added to the study thirteen days later. Seven groups were ovariectomized (OVX) and one group was sham-operated (SHAM). Animals were treated subcutaneously once a day, five days a week (Monday-Friday) as follows. Groups 1 (the SHAM group) and 2 (the OVX group) were given the vehicle benzylbenzoate/ricinus oil (0.5 ml/kg, B/R). […] Treatments started on the day following surgical operation and continued for 4 weeks. At the end of the study, ex vivo BMD of proximal tibia was measured and serum estradiol was determined. In addition, uterus was weighed. Relative uterine weight was calculated as percentage of body weight

[3] = Body weight, estradiol in ovariectomized rats (Example 2); format: in vivo, Sprague-Dawley rats; details: OVX rats, s.c. once a day, 5 days a week, 4 weeks
Method: as §1, with “weighed.” for “weighed. Relative uterine weight was calculated as percentage of body weight”

[4] = test system: ERE-Luc; assay: Estrogenic activity in the estrogen reporter mouse ERE-Luc model, luciferase activity in organs (Example 5); format: in vivo, mice; details: male ERE-Luc mice, six hours after the injection; for Luciferase activity, Prostate: controls 0.5; for Luciferase activity, Bone: controls 2.8; for Luciferase activity, Brain: controls 6.5; for Luciferase activity, Liver: controls 7.6
Method: In order to avoid experimental noise male animals were used.
Fourtyfive heterozygous male ERE-Luc mice of two months of age were fed with soy-free diet for two weeks before assigning them to each experimental group then all the mice were injected intraperitoneally (i.p.) with 250 μl of an oily solution containing the following compounds: • 1. Experimental group 1: vehicle • 2. Experimental group 2: 17β-estradiol at 1.5 μg/kg • 3. Experimental group 3: 2S(−)-8-PN at 30 mg/kg • 4. […] Experimental group 5: genistein at 30 mg/kg.
The treatment was carried out in experimental groups of three mice each and repeated three times (therefore numbers reflect the average of […] determinations on a total of 9 animals).
Six hours after the injection, mice were sacrificed by cervical dislocation and organs were dissected and frozen on dry ice. The following organs were analyzed for lucifererase activity by enzymatic assay: prostate, liver, bone, brain.
Data represent means ±standard deviation of N=9 animals per group.
Analysis of variance (ANOVA) for overall comparison was followed by Tukey test for paired comparisons. All statistical procedures were carried out with Systat and SAS (*P<0.05; **P<0.01).

[5] = test system: ovariectomized rats; assay: Trabecular density of proximal tibia, 8-PN racemic, 2S(−) 8-PN and estradiol hemihydrate in ovariectomized rats (Example 4); format: in vivo, Sprague-Dawley rats; details: OVX rats, s.c. 28 days
Method: (§2) The aim of the study was to directly compare the effects of Prenylnaringenin (racemate) and 2S(−) 8-Prenylnaringenin to the effects of estradiol hemihydrate on bone mineral density and uterine weight on 3-month-old ovariectomized rats using identical formulations. In addition, the effects of estradiolhemihydrate in two vehicles (oily, aqueous) were examined for influence of formulations. The substances were administered subcutaneously(s.c.) seven days a week beginning the day after ovariectomy. At the end of the study, uterine weight and bone mineral density (BMD) of tibia were measured.
(§3) Forty-one female Sprague-Dawley rats, 12-14 weeks of age were randomized into six groups, 6-8 animals in each. Five groups were ovariectomized (OVX) and one group was sham-operated (SHAM). Treatments started on the day following operation and continued for 28 days. The animals were treated s.c. once a day seven times a week as follows. Group 1 (SHAM vehicle group) and group 2 (OVX vehicle group) were given the vehicle 30% hydroxypropyl-β-cyclodextrin (HP-β-CD). Groups 3 and 4 were administered 4 μg/kg/d of estradiol hemihydrate in vehicle benzyl benzoate/ricinus oil (B/R) and in vehicle HP-β-CD, respectively. Groups 5 and 6 were given 20 mg/kg/d of 2S(−)8-Prenylnaringenin and racemic 8-Prenylnaringenin, respectively, both in vehicle HP-β-CD. At the end of the study, left tibiae were excised for the ex vivo BMD […] were taken from all dosing solutions on the first and last day of use.
(§4) Vehicle 1 (used in the groups 1 and 2): 30% hydroxypropyl-β-cyclodextrin and 0.3% NaCl (w/v), 5% ethanol (v/v) in Aqua sterilisata, pH 7.4.
(§5) Vehicle 2 (used when preparing dosing solutions of the groups 4, 5 and 6): 30% hydroxypropyl-β-cyclodextrin and 0.3% NaCl (w/v) in Aqua sterilisata, pH 7.4.
(§6) Vehicle 3 (used when preparing a dosing solution of the group 3): benzyl benzoate/ricinus oil (B/R) 1+4, v/v.

[6] = test system: ovariectomized rats; assay: Relative uterus weight, 8-PN racemic, 2S(−) 8-PN and estradiol hemihydrate in ovariectomized rats (Example 4); format: in vivo, Sprague-Dawley rats; details: OVX rats, s.c. 28 days, calculated as percentage of body weight
Method: as §2, §3, §4, §5, §6

[7] = Body weight, 8-PN racemic, 2S(−) 8-PN and estradiol hemihydrate in ovariectomized rats (Example 4); format: in vivo, Sprague-Dawley rats; details: OVX rats, s.c. once a day, 28 days
Method: as §2, §3, §4, §5, §6

[8] = 4.0 μpg/kg/d s.c. five times a week for four weeks
[9] = 4 μg/kg/d in benzyl benzoate/ricinus oil (B/R)

C[C@]12CC[C@@H]3c4ccc(O)cc4CC[C@H]3[C@@H]1CC[C@@H]2O [17β-estradiol]
effect on total and trabecular bone mineral density of proximal tibia [1, 8]: prevented the OVX-induced decrease in total and trabecular bone mineral density of proximal tibia | Total bone density ([1]; 0.2 μg/kg/d in B/R): 511 (17) mg/cm^3 | Trabecular density ([1]; 0.2 μg/kg/d in B/R): 271 (17) mg/cm^3 | Total bone density ([1]; 0.4 μg/kg/d in B/R): 506 (8) mg/cm^3 | Trabecular density ([1]; 0.4 μg/kg/d in B/R): 260 (13) mg/cm^3 | Total bone density ([1]; 1.2 μg/kg/d in B/R): 577 (24) mg/cm^3 | Trabecular density ([1]; 1.2 μg/kg/d in B/R): 376 (31) mg/cm^3 | Total bone density ([1]; 1.2 μg/kg/d in E/A): 577 (22) mg/cm^3 | Trabecular density ([1]; 1.2 μg/kg/d in E/A): 366 (24) mg/cm^3 | Total bone density ([1]; 4.0 μg/kg/d in B/R): 637 (13) mg/cm^3 | Trabecular density ([1]; 4.0 μg/kg/d in B/R): 435 (21) mg/cm^3 | effect on relative uterine weight [2, 8]: prevented the decrease in relative uterine weight and maintained it on the level of the SHAM vehicle group | Relative uterine weight ([2]; 0.2 μg/kg/d in B/R): 0.045 (0.003) % of body weight | Relative uterine weight ([2]; 0.4 μg/kg/d in B/R): 0.054 (0.003) % of body weight | Relative uterine weight ([2]; 1.2 μg/kg/d in B/R): 0.110 (0.008) % of body weight | Relative uterine weight ([2]; 1.2 μg/kg/d in E/A): 0.114 (0.005) % of body weight | Relative uterine weight ([2]; 4.0 μg/kg/d in B/R): 0.159 (0.006) % of body weight | Final body weight ([3]; 0.2 μg/kg/d in vehicle B/R): 304 (6) g | The change in body weight ([3]; 0.2 μg/kg/d in vehicle B/R): 51 (3) g | Final body weight ([3]; 0.4 μg/kg/d in vehicle B/R): 312 (6) g | The change in body weight ([3]; 0.4 μg/kg/d in vehicle B/R): 53 (5) g | Final body weight ([3]; 1.2 μg/kg/d in vehicle B/R): 303 (6) g | The change in body weight ([3]; 1.2 μg/kg/d in vehicle B/R): 48 (4) g | Final body weight ([3]; 1.2 μg/kg/d in vehicle E/A): 287 (8) g | The change in body weight ([3]; 1.2 μg/kg/d in vehicle E/A): 33 (3) g | Final body weight ([3]; 4.0 μg/kg/d in vehicle B/R): 284 (7) g | The change in body weight ([3]; 4.0 μg/kg/d in vehicle B/R): 31 (3) g | Luciferase activity, Prostate ([4]; i.p. 1.5 μg/kg): 0.5 arbitrary units | Luciferase activity, Bone ([4]; i.p. 1.5 μg/kg): 2.6 arbitrary units | Luciferase activity, Brain ([4]; i.p. 1.5 μg/kg): 6.6 arbitrary units | Luciferase activity, Liver ([4]; i.p. 1.5 μg/kg): 11.0 ** arbitrary units

O=c1c(-c2ccc(O)cc2)coc2cc(O)cc(O)c12 [Genistein, genistein]
Luciferase activity, Prostate ([4]; i.p. 30 mg/kg): 0.7 ** arbitrary units | Luciferase activity, Bone ([4]; i.p. 30 mg/kg): 3.8 * arbitrary units | Luciferase activity, Brain ([4]; i.p. 30 mg/kg): 8.7 arbitrary units | Luciferase activity, Liver ([4]; i.p. 30 mg/kg): 12.2 ** arbitrary units

C[C@]12CC[C@@H]3c4ccc(O)cc4CC[C@H]3[C@@H]1CC[C@@H]2O [estradiol hemihydrate, 17β-estradiol hemihydrate, reference compound]
Total bone density ([1]; 1.2 μg/kg/d in BA/S): 596 (18) mg/cm^3 | Trabecular density ([1]; 1.2 μg/kg/d in BA/S): 386 (21) mg/cm^3 | Relative uterine weight ([2]; 1.2 μg/kg/d in BA/S): 0.131 (0.008) % of body weight | Final body weight ([3]; 1.2 μg/kg/d in vehicle BA/S): 288 (11) g | The change in body weight ([3]; 1.2 μg/kg/d in vehicle BA/S): 28 (1) g | Trabecular density at left proximal tibia, Mean ([5]; 4 μg/kg/d in B/R): 542 mg/cm3 | Trabecular density at left proximal tibia, Median ([5]; 4 μg/kg/d in B/R): 577 mg/cm3 | Trabecular density at left proximal tibia, Mean ([5]; 4 μg/kg/d in HP-β-CD): 406 mg/cm3 | Trabecular density at left proximal tibia, Median ([5]; 4 μg/kg/d in HP-β-CD): 383 mg/cm3 | Relative uterus weight, Mean ([6]; 4 μg/kg/d in B/R): 0.175 | Relative uterus weight, Median ([6]; 4 μg/kg/d in B/R): 0.178 | Relative uterus weight, Mean ([6]; 4 μg/kg/d in HP-β-CD): 0.131 | Relative uterus weight, Median ([6]; 4 μg/kg/d in HP-β-CD): 0.120 | Body weight at The end (bw4b) ([7]; 4 μg/kg/d in HP-β-CD): 285(9) g | The change in Body weight (bw4b-bw0) ([7]; 4 μg/kg/d in HP-β-CD): 10(4) g | Body weight at The end (bw4b) [7, 9]: 291(9) g | The change in Body weight (bw4b-bw0) [7, 9]: 17(4) g
